Source: patent US20050197350A1, “Novel quinoline, tetrahydroquinazoline, and pyrimidine derivatives and methods of treatment related to the use thereof” (TAISHO PHARMACEUTICAL CO., LTD., priority 2003, published 2005)

The compounds below were run on MCH receptors (assay: MCH receptor activity class (method not given)). Conditions: MCH receptor activity class 1-3 (percent of control at 10^-7 M or IC50).
In the case of CN(C)c1ccnc(N[C@H]2CC[C@@H](NC(=S)Nc3ccc(Cl)cc3C(F)(F)F)CC2)n1 [compound 2339], the class is reported as 3 (Class 3 The value of percent of control at 10^−7 M was more than 60% or the value of IC50 was more than 200 nM.).
CSc1ccc(NC(=O)NC[C@H]2CC[C@@H](Nc3nc4c(c(N(C)C)n3)CCCC4)CC2)cc1 [compound 2457] was tested, and the class was 3 (Class 3 The value of percent of control at 10^−7 M was more than 60% or the value of IC50 was more than 200 nM.).
In the case of C[C@@H](NC(=S)N[C@H]1CC[C@@H](Nc2nccc(N(C)C)n2)CC1)c1ccccc1 [compound 2343], the class is reported as 3 (Class 3 The value of percent of control at 10^−7 M was more than 60% or the value of IC50 was more than 200 nM.).

Same assay, conditions: MCH receptor; class by percent of control at 10^-7 M or IC50
For CN(C)c1cc(N[C@H]2CC[C@@H](NC(=O)c3ccc(F)cc3F)CC2)nc2ccccc12 [compound 126, N-(cis-4-{[4-(dimethylamino)quinolin-2-yl]amino}cyclohexyl)-2,4-difluorobenzamide], the class was 3 (Class 3 The value of percent of control at 10^−7 M was more than 60% or the value of IC50 was more than 200 nM.).
COc1ccc(CC(=O)N[C@H]2CC[C@@H](Nc3cc(N(C)C)c4ccccc4n3)CC2)cc1OC [compound 123] was tested, and the class was 3 (Class 3 The value of percent of control at 10^−7 M was more than 60% or the value of IC50 was more than 200 nM.).
With CN(C)c1nc(N[C@H]2CC[C@@H](NC(=S)Nc3cc(F)ccc3Br)CC2)nc2c1CCCC2 [compound 2061] the class was 3 (Class 3 The value of percent of control at 10^−7 M was more than 60% or the value of IC50 was more than 200 nM.).
With CN(C)c1cc(N[C@H]2CC[C@@H](NC(=O)c3ccc(F)cc3)CC2)nc2ccccc12 [compound 37, N-(cis-4-{[4-(dimethylamino)quinolin-2-yl]amino}cyclohexyl)-4-fluorobenzamide] the class was 1 (Class 1: The value of percent of control at 10^−7 M was less than 40% or the value of IC50 was less than 50 nM.).
For CN(C)c1cc(N[C@H]2CC[C@@H](CNC(=O)c3ccc(I)cc3)CC2)nc2ccccc12 [compound 168], the class was 3 (Class 3 The value of percent of control at 10^−7 M was more than 60% or the value of IC50 was more than 200 nM.).
CN(C)c1cc(N[C@H]2CC[C@@H](NC(=O)COc3ccccc3[N+](=O)[O-])CC2)nc2ccccc12 [compound 113] was tested, and the class was 3 (Class 3 The value of percent of control at 10^−7 M was more than 60% or the value of IC50 was more than 200 nM.).
With CN(C)c1cc(N[C@H]2CC[C@@H](CNC(=O)c3cccc(Br)c3)CC2)nc2ccccc12 [compound 148] the class was 3 (Class 3 The value of percent of control at 10^−7 M was more than 60% or the value of IC50 was more than 200 nM.).
In the case of CN(C)c1nc(N[C@H]2CC[C@@H](NC(=S)Nc3c(Cl)cccc3Cl)CC2)nc2c1CCCC2 [compound 1938], the class is reported as 3 (Class 3 The value of percent of control at 10^−7 M was more than 60% or the value of IC50 was more than 200 nM.).
For CN(C)c1cc(N[C@H]2CC[C@@H](CNC(=O)CSc3ccccc3)CC2)nc2ccccc12 [compound 190], the class was 3 (Class 3 The value of percent of control at 10^−7 M was more than 60% or the value of IC50 was more than 200 nM.).

Same assay, conditions: activity class 1-3: percent of control at 10^-7 M or IC50
For CN(C)c1nc(N[C@H]2CC[C@@H](NC(=O)Nc3c(F)cc(Br)cc3F)CC2)nc2c1CCCC2 [compound 1686], the class was 3 (Class 3 The value of percent of control at 10^−7 M was more than 60% or the value of IC50 was more than 200 nM.).
With CN(C)c1cc(N[C@H]2CC[C@@H](NC(=O)Oc3ccc(Br)cc3)CC2)nc2ccccc12 [compound 1543] the class was 3 (Class 3 The value of percent of control at 10^−7 M was more than 60% or the value of IC50 was more than 200 nM.).

Same assay, conditions: activity class per percent of control at 10^-7 M or IC50
In the case of CN(C)c1cc(N[C@H]2CC[C@@H](NCc3c[nH]nc3-c3ccc(F)cc3)CC2)nc2ccccc12 [compound 1117], the class is reported as 3 (Class 3 The value of percent of control at 10^−7 M was more than 60% or the value of IC50 was more than 200 nM.).
CSc1ccc(Cl)c(C(=O)N[C@H]2CC[C@@H](Nc3nc4c(c(N(C)C)n3)CCCC4)CC2)c1 [compound 1056] was tested, and the class was 3 (Class 3 The value of percent of control at 10^−7 M was more than 60% or the value of IC50 was more than 200 nM.).
In the case of CN(C)c1nc(N[C@H]2CC[C@@H](NC(=O)C3CCc4ccccc4C3)CC2)nc2c1CCCC2 (relative stereo) [compound 1053], the class is reported as 3 (Class 3 The value of percent of control at 10^−7 M was more than 60% or the value of IC50 was more than 200 nM.).

Same assay, conditions: class 1-3 by percent of control at 10^-7 M or IC50
With CN(C)c1nc(N[C@H]2CC[C@@H](NC(=O)CC3CCCC3)CC2)nc2c1CCCC2 [compound 511] the class was 3 (Class 3 The value of percent of control at 10^−7 M was more than 60% or the value of IC50 was more than 200 nM.).
With CN(C)c1nc(N[C@H]2CC[C@@H](NC(=O)C3(c4ccc(Cl)cc4)CCCC3)CC2)nc2c1CCCC2 [compound 535] the class was 2 (Class 2: The value of percent of control at 10^−7 M was from 40% to 60% or the value of IC′50 was from 50 nM to 200 nM.).
In the case of CN(C)c1ccnc(N[C@H]2CC[C@@H](CNC(=O)c3c(F)cccc3F)CC2)n1 [compound 447], the class is reported as 3 (Class 3 The value of percent of control at 10^−7 M was more than 60% or the value of IC50 was more than 200 nM.).

Same assay, conditions: class by percent of control at 10^-7 M or IC50
CCc1cccc(C)c1NC(=O)N[C@H]1CC[C@@H](Nc2cc(N(C)C)c3ccccc3n2)CC1 [compound 2092, N-(cis-4-{[4-(dimethylamino)quinolin-2-yl]amino}cyclohexyl)-N′-(2-ethyl-6-methylphenyl)urea] was tested, and the class was 2 (Class 2: The value of percent of control at 10^−7 M was from 40% to 60% or the value of IC′50 was from 50 nM to 200 nM.).
In the case of CCOC(=O)[C@H](Cc1ccccc1)NC(=O)N[C@H]1CC[C@@H](Nc2cc(N(C)C)c3ccccc3n2)CC1 (relative stereo) [compound 2160], the class is reported as 3 (Class 3 The value of percent of control at 10^−7 M was more than 60% or the value of IC50 was more than 200 nM.).
Cc1ccc(CNC[C@H]2CC[C@@H](Nc3cc(N(C)C)c4ccccc4n3)CC2)cc1I [compound 1476] was tested, and the class was 3 (Class 3 The value of percent of control at 10^−7 M was more than 60% or the value of IC50 was more than 200 nM.).
For CN(C)c1cc(N[C@H]2CC[C@@H](CNCc3ccsc3)CC2)nc2ccccc12 [compound 1183], the class was 3 (Class 3 The value of percent of control at 10^−7 M was more than 60% or the value of IC50 was more than 200 nM.).
For Cc1cc([N+](=O)[O-])ccc1NC(=O)N[C@H]1CC[C@@H](Nc2nc3c(c(N(C)C)n2)CCCC3)CC1 [compound 1714], the class was 3 (Class 3 The value of percent of control at 10^−7 M was more than 60% or the value of IC50 was more than 200 nM.).
For Cc1cccc(C(=O)NC[C@H]2CC[C@@H](Nc3nccc(N(C)C)n3)CC2)c1 [compound 395], the class was 3 (Class 3 The value of percent of control at 10^−7 M was more than 60% or the value of IC50 was more than 200 nM.).
CCOc1cc(CNC[C@H]2CC[C@@H](Nc3nccc(N(C)C)n3)CC2)ccc1O [compound 1280] was tested, and the class was 2 (Class 2: The value of percent of control at 10^−7 M was from 40% to 60% or the value of IC′50 was from 50 nM to 200 nM.).
CN(C)c1ccnc(N[C@H]2CC[C@@H](CNC(=O)c3ccc(Cl)cc3)CC2)n1 [compound 370] was tested, and the class was 2 (Class 2: The value of percent of control at 10^−7 M was from 40% to 60% or the value of IC′50 was from 50 nM to 200 nM.).
For CN(C)c1ccnc(N[C@H]2CC[C@@H](CNC(=O)Cc3cccs3)CC2)n1 [compound 398], the class was 3 (Class 3 The value of percent of control at 10^−7 M was more than 60% or the value of IC50 was more than 200 nM.).
In the case of CN(C)c1nc(N[C@H]2CC[C@@H](NC(=O)NCc3cccc(F)c3)CC2)nc2c1CCCC2 [compound 1873], the class is reported as 3 (Class 3 The value of percent of control at 10^−7 M was more than 60% or the value of IC50 was more than 200 nM.).
For CN(C)c1ccnc(N[C@H]2CC[C@@H](CNC(=O)c3ccc(Cl)c(Cl)c3)CC2)n1 [compound 376], the class was 2 (Class 2: The value of percent of control at 10^−7 M was from 40% to 60% or the value of IC′50 was from 50 nM to 200 nM.).
With COc1cccc(OC)c1CNC[C@H]1CC[C@@H](Nc2nc3c(c(N(C)C)n2)CCCC3)CC1 [compound 1364] the class was 1 (Class 1: The value of percent of control at 10^−7 M was less than 40% or the value of IC50 was less than 50 nM.).
With COC(=O)c1cccc(NC(=S)N[C@H]2CC[C@@H](Nc3cc(N(C)C)c4ccccc4n3)CC2)c1 [compound 2282] the class was 3 (Class 3 The value of percent of control at 10^−7 M was more than 60% or the value of IC50 was more than 200 nM.).
With COc1cc(CNC[C@H]2CC[C@@H](Nc3nccc(N(C)C)n3)CC2)cc(Br)c1OC [compound 1310] the class was 1 (Class 1: The value of percent of control at 10^−7 M was less than 40% or the value of IC50 was less than 50 nM.).

Same assay, conditions: class by percent of control at 10^−7 M or IC50
With Cc1cc(C(=O)N[C@H]2CC[C@@H](Nc3nc(C)c(C)c(N(C)C)n3)CC2)ccc1F [compound 2854, N-(cis-4-{[4-(dimethylamino)-5,6-dimethylpyrimidin-2-yl]amino}cyclohexyl)-4-fluoro-3-methylbenzamide] the class was 1 (Class 1: The value of percent of control at 10^−7 M was less than 40% or the value of IC50 was less than 50 nM.).
Cc1cc(N(C)C)nc(N[C@H]2CC[C@@H](NC(=O)c3ccc(F)c(Cl)c3)CC2)n1 [compound 2963] was tested, and the class was 1 (Class 1: The value of percent of control at 10^−7 M was less than 40% or the value of IC50 was less than 50 nM.).
In the case of Cc1nc(N[C@H]2CC[C@@H](NC(=O)c3nccnc3N)CC2)nc(N(C)C)c1C [compound 2833], the class is reported as 2 (Class 2: The value of percent of control at 10^−7 M was from 40% to 60% or the value of IC′50 was from 50 nM to 200 nM.).
For Cc1cnc(N[C@H]2CC[C@@H](C(=O)NC(C)c3ccc(Br)cc3)CC2)nc1N(C)C (relative stereo) [compound 2779], the class was 1 (Class 1: The value of percent of control at 10^−7 M was less than 40% or the value of IC50 was less than 50 nM.).
In the case of COc1cc(OC)cc(C(=O)N[C@H]2CC[C@@H](Nc3ncc(C)c(N(C)C)n3)CC2)c1 [compound 2900, N-(cis-4-{[4-(dimethylamino)-5-methylpyrimidin-2-yl]amino}cyclohexyl)-3,5-dimethoxybenzamide], the class is reported as 1 (Class 1: The value of percent of control at 10^−7 M was less than 40% or the value of IC50 was less than 50 nM.).
